Values joined by “and” are separate entries in the source; they are usually repeats but may differ in a detail not shown here. Equal values may be shown once. Inconclusive results and toxic doses are left out. No stated cut-off is given here; in the data, active means T/C of 150% or more; inactive means T/C below 125%.
Test system: L1210 leukemia ip in BDF1 mice, survival T/C
Experiment: NCI In Vivo Anticancer Drug Screen. Data for tumor model L1210 Leukemia (intraperitoneal) in B6D2F1 (BDF1) mice
Conditions: endpoint: mean survival time, higher = longer survival
Procedure, shortened: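 Survival endpoint. Drug-treated group vs vehicle group, expressed as T divided by C. Tumor passaged by transplantation.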

[1] = dose: 100.0 mg/kg/injection, schedule: Q04DX002 (ip), vehicle: Klucel (hydroxypropylcellulose) (HPC)
[2] = dose: 25.0 mg/kg/injection, schedule: Q01DX009 (ip), vehicle: Klucel (hydroxypropylcellulose) (HPC)
[3] = dose: 50.0 mg/kg/injection, schedule: Q01DX009 (ip), vehicle: Klucel (hydroxypropylcellulose) (HPC)
[4] = dose: 100.0 mg/kg/injection, schedule: Q01DX001 (ip), vehicle: Klucel (hydroxypropylcellulose) (HPC)
[5] = dose: 100.0 mg/kg/injection, schedule: Q01DX009 (ip), vehicle: Klucel (hydroxypropylcellulose) (HPC)
[6] = dose: 100.0 mg/kg/injection, schedule: Q04DX003 (ip), vehicle: Klucel (hydroxypropylcellulose) (HPC)
[7] = dose: 100.0 mg/kg/injection, schedule: Q01DX001 (ip), vehicle: saline
[8] = dose: 200.0 mg/kg/injection, schedule: Q01DX001 (ip), vehicle: saline
[9] = dose: 400.0 mg/kg/injection, schedule: Q01DX001 (ip), vehicle: saline
[10] = dose: 200.0 mg/kg/injection, schedule: Q04DX003 (ip), vehicle: Klucel (hydroxypropylcellulose) (HPC)
[11] = dose: 400.0 mg/kg/injection, schedule: Q04DX003 (ip), vehicle: Klucel (hydroxypropylcellulose) (HPC)
[12] = dose: 200.0 mg/kg/injection, schedule: Q01DX001 (ip), vehicle: Klucel (hydroxypropylcellulose) (HPC)
[13] = dose: 400.0 mg/kg/injection, schedule: Q01DX001 (ip), vehicle: Klucel (hydroxypropylcellulose) (HPC)
[14] = dose: 200.0 mg/kg/injection, schedule: Q01DX009 (ip), vehicle: Klucel (hydroxypropylcellulose) (HPC)
[15] = dose: 12.5 mg/kg/injection, schedule: Q01DX009 (ip), vehicle: saline with Tween-80
[16] = dose: 25.0 mg/kg/injection, schedule: Q01DX009 (ip), vehicle: saline with Tween-80
[17] = dose: 100.0 mg/kg/injection, schedule: Q04DX003 (ip), vehicle: saline
[18] = dose: 200.0 mg/kg/injection, schedule: Q04DX003 (ip), vehicle: saline
[19] = dose: 400.0 mg/kg/injection, schedule: Q04DX003 (ip), vehicle: saline
[20] = dose: 100.0 mg/kg/injection, schedule: Q01DX001 (ip), vehicle: other
[21] = dose: 200.0 mg/kg/injection, schedule: Q01DX001 (ip), vehicle: other
[22] = dose: 400.0 mg/kg/injection, schedule: Q01DX001 (ip), vehicle: other

Measured: T/C

Cc1cccc(SC(=O)Nc2ccc([N+](=O)[O-])cc2Cl)c1
inactive: [1] 100 % of control | dose: 200.0 mg/kg/injection, schedule: Q04DX002 (ip), vehicle: Klucel (hydroxypropylcellulose) (HPC) 116 % of control | dose: 400.0 mg/kg/injection, schedule: Q04DX002 (ip), vehicle: Klucel (hydroxypropylcellulose) (HPC) 92 % of control

O=C(CC(c1ccccc1)(c1ccccc1)c1ccccc1)c1ccccc1
inactive: dose: 50.0 mg/kg/injection, schedule: Q01DX001 (ip), vehicle: carboxymethylcellulose (CMC) 98 % of control | dose: 100.0 mg/kg/injection, schedule: Q01DX001 (ip), vehicle: carboxymethylcellulose (CMC) 93 % of control | dose: 200.0 mg/kg/injection, schedule: Q01DX001 (ip), vehicle: carboxymethylcellulose (CMC) 90 % of control | dose: 400.0 mg/kg/injection, schedule: Q01DX001 (ip), vehicle: carboxymethylcellulose (CMC) 93 % of control

CC1=NCCc2cc3[nH]c4ccccc4c3cc21
inactive: [2] 102 % of control | dose: 25.0 mg/kg/injection, schedule: Q04DX003 (ip), vehicle: Klucel (hydroxypropylcellulose) (HPC) 99 % of control | [3] 96 % of control | dose: 50.0 mg/kg/injection, schedule: Q04DX003 (ip), vehicle: Klucel (hydroxypropylcellulose) (HPC) 104 % of control | [4] 94 % of control | [5] 94 % of control | [6] 100 % of control

CCCCCCC(C)OC(=O)CCSCCC(=O)OC(C)CCCCCC (stereo not given)
inactive: [7] 98 % of control | [8] 94 % of control | [9] 86 % of control

N/C(N=Nc1ccccc1)=N\[N+](=O)[O-]
inactive: [6] 100 % of control | [10] 105 % of control | [11] 86 % of control

CCOC(=O)C1C(=O)C2CCc3c(ccc4ccccc34)N2C1=O (stereo not given)
inactive: [6] 98 % of control | [10] 104 % of control

COC(=O)c1ccccc1NC(=O)c1ccccc1[N+](=O)[O-]
inactive: dose: 75.0 mg/kg/injection, schedule: Q04DX003 (ip), vehicle: Klucel (hydroxypropylcellulose) (HPC) 101 % of control | [4] 95 % of control | dose: 150.0 mg/kg/injection, schedule: Q04DX003 (ip), vehicle: Klucel (hydroxypropylcellulose) (HPC) 98 % of control | [12] 100 % of control | dose: 300.0 mg/kg/injection, schedule: Q04DX003 (ip), vehicle: Klucel (hydroxypropylcellulose) (HPC) 97 % of control | [13] 95 % of control

CC(C)OC(=O)Oc1cccc2c1C(=O)c1ccccc1C2=O
inactive: [5] 91 % of control | [6] 97 % of control | [14] 91 % of control | [10] 93 % of control | [11] 104 % of control

O=C1Cc2ccccc2/C=C\c2ccccc21
inactive: [4] 97 % of control | [6] 102 % of control | [12] 100 % of control | [10] 96 % of control | [13] 106 % of control | [11] 102 % of control

CC(C)N1CSC(=S)N(Cc2ccccc2)C1
inactive: [3] 108 % of control | [5] 92 % of control | [6] 98 % of control | [14] 91 % of control | [10] 95 % of control | dose: 400.0 mg/kg/injection, schedule: Q01DX009 (ip), vehicle: Klucel (hydroxypropylcellulose) (HPC) 94 % of control | [11] 90 % of control

COc1ccc(OC)c(NC(=O)CCl)c1
inactive: [2] 96 % of control | dose: 25.0 mg/kg/injection, schedule: Q04DX002 (ip), vehicle: Klucel (hydroxypropylcellulose) (HPC) 96 % of control | [3] 98 % of control | dose: 50.0 mg/kg/injection, schedule: Q04DX002 (ip), vehicle: Klucel (hydroxypropylcellulose) (HPC) 93 % of control | [5] 89 % of control and 90 % of control | [1] 93 % of control and 106 % of control

CC1=C(C#N)C(C)(C)c2ccccc21
inactive: dose: 100.0 mg/kg/injection, schedule: Q04DX002 (ip), vehicle: saline with Tween-80 110 % of control | dose: 200.0 mg/kg/injection, schedule: Q04DX002 (ip), vehicle: saline with Tween-80 100 % of control | dose: 400.0 mg/kg/injection, schedule: Q04DX002 (ip), vehicle: saline with Tween-80 100 % of control

O=C(Nc1ccccc1)OCC(CN1CCCCC1)OC(=O)Nc1ccccc1 (stereo not given)
inactive: [15] 97 % of control | [16] 99 % of control | dose: 50.0 mg/kg/injection, schedule: Q01DX009 (ip), vehicle: saline with Tween-80 99 % of control | dose: 100.0 mg/kg/injection, schedule: Q01DX009 (ip), vehicle: saline with Tween-80 86 % of control | dose: 100.0 mg/kg/injection, schedule: Q04DX003 (ip), vehicle: saline with Tween-80 98 % of control | dose: 200.0 mg/kg/injection, schedule: Q01DX009 (ip), vehicle: saline with Tween-80 91 % of control | dose: 200.0 mg/kg/injection, schedule: Q04DX003 (ip), vehicle: saline with Tween-80 90 % of control

COc1cc(/C=C2\SC(=O)NC2=O)ccc1O
inactive: [15] 106 % of control | [16] 101 % of control | dose: 150.0 mg/kg/injection, schedule: Q01DX009 (ip), vehicle: saline with Tween-80 101 % of control

O=C(CN(Cc1ccccc1)Cc1ccccc1)c1ccccc1
inactive: dose: 100.0 mg/kg/injection, schedule: Q04DX003 (ip), vehicle: DMSO 103 % of control

O=C(Cn1ccc(=O)[nH]c1=O)N1CCC2(CC1)SSC1(CCN(C(=O)Cn3ccc(=O)[nH]c3=O)CC1)S2
inactive: dose: 100.0 mg/kg/injection, schedule: Q01DX009 (ip), vehicle: saline 106 % of control | [17] 97 % of control | dose: 200.0 mg/kg/injection, schedule: Q01DX009 (ip), vehicle: saline 98 % of control | [18] 95 % of control | dose: 400.0 mg/kg/injection, schedule: Q01DX009 (ip), vehicle: saline 93 % of control | [19] 92 % of control

COC1OC(CO)C2OC12 (stereo not given)
inactive: dose: 75.0 mg/kg/injection, schedule: Q01DX009 (ip), vehicle: saline 98 % of control and 107 % of control | [7] 104 % of control | [17] 107 % of control and 100 % of control | dose: 150.0 mg/kg/injection, schedule: Q01DX009 (ip), vehicle: saline 110 % of control and 93 % of control | [8] 102 % of control and 96 % of control | [18] 98 % of control and 89 % of control | dose: 300.0 mg/kg/injection, schedule: Q01DX009 (ip), vehicle: saline 102 % of control and 100 % of control | [9] 104 % of control | [19] 100 % of control and 104 % of control

c1cc2nnc3cccc4nnc(c1)c2c34
inactive: [7] 102 % of control | [8] 107 % of control | [9] 103 % of control

CCOC(=O)Nc1cc(N)c(N)c(NC(c2ccccc2)c2ccccc2)n1
inactive: [20] 102 % of control | [21] 104 % of control | [22] 100 % of control

CCN(CC)c1ccc(N=C2C=C(C(=O)Nc3ccccc3)C(=O)c3ccccc32)cc1
inactive: [20] 86 % of control | [21] 89 % of control | [22] 88 % of control

From PubChem BioAssay AID248 (DTP/NCI, 2004)
